Assay: xn = mol fraction of the nth substance listed
Conditions: 101 kPa

O=C1CCCO1 + CCC[N+]1(C)CCCC1.O=S(=O)([N-]S(=O)(=O)C(F)(F)F)C(F)(F)F
x2 = 0
Conditions | viscosity [mPa·s]
278.15 K | 2.56
298.15 K | 1.859
308.15 K | 1.641
328.15 K | 1.242
338.15 K | 1.106
358.15 K | 0.894

CCC[N+]1(C)CCCC1.O=S(=O)([N-]S(=O)(=O)C(F)(F)F)C(F)(F)F + O=C1CCCO1
viscosity [mPa·s]
Conditions | 278.15 K | 288.15 K | 298.15 K | 308.15 K | 318.15 K | 328.15 K | 338.15 K | 348.15 K | 358.15 K
x1 = 0.0657 | – | 3.14 | 2.65 | 2.296 | 1.951 | 1.694 | – | 1.328 | 1.191
x1 = 0.1741 | 6.97 | – | 4.45 | 3.67 | 3.08 | – | – | – | –
x1 = 0.3874 | 16.24 | 11.87 | 9.04 | 7.09 | 5.71 | 4.7 | 3.95 | 3.37 | 2.92
x1 = 1 | – | 96.2 | 60.6 | 40.8 | 28.9 | 21.3 | 16.29 | 12.82 | –
